Laboratory results: patent US6737383B1, “Herbicidal oxadiazolidines” (priority 1999, dated 2004)

Key:
blackgrass = test: Test B pre/postemergence blackgrass; format: in vivo, Alopecurus myosuroides
Outline: (§1)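 Test chemicals in a non-phytotoxic solvent mixture with surfactant were sprayed preemergence onto planted seeds and postemergence onto plants 2 to 18 cm tall (1- to 4-leaf stage). After twelve to sixteen days in a greenhouse, injury was visually rated against untreated controls from 0 (no effect) to 10 (complete control).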

bamyardgrass = test: Test B flood test barnyardgrass; format: in vivo, Echinochloa crus-galli
Outline: (§2)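 Each value is a visual injury score relative to controls, with 10 meaning complete control and 0 no effect. Evaluation took place twelve to sixteen days after the 2-leaf-stage plants were treated and kept in the greenhouse.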

wild oat = test: Test B pre/postemergence wild oat; format: in vivo, Avena fatua
Outline: as §1

bedstraw = test: Test B pre/postemergence bedstraw; format: in vivo, Galium aparine
Outline: as §1

duck salad = test: Test B flood test duck salad; format: in vivo, Heteranthera limosa
Outline: as §2

purple nutsedge = test: Test B pre/postemergence purple nutsedge; format: in vivo, Cyperus rotundus
Outline: as §1

wheat = test: Test B pre/postemergence wheat; format: in vivo, Triticum aestivum
Outline: as §1

sugar beet = test: Test B pre/postemergence sugar beet; format: in vivo, Beta vulgaris
Outline: as §1

rice = test: Test B flood test rice; format: in vivo, Oryza sativa
Outline: as §2

morningglory = test: Test B pre/postemergence morningglory; format: in vivo, Ipomoea hederacea
Outline: as §1

rape = test: Test B pre/postemergence rape; format: in vivo, Brassica napus
Outline: as §1

pigweed = test: Test B pre/postemergence pigweed; format: in vivo, Amaranthus retroflexus
Outline: as §1

giant foxtail = test: Test B pre/postemergence giant foxtail; format: in vivo, Setaria faberii
Outline: as §1

smallflower flatsedge = test: Test B flood test smallflower flatsedge; format: in vivo, Cyperus difformis
Outline: as §2

velvetleaf = test: Test B pre/postemergence velvetleaf; format: in vivo, Abutilon theophrasti
Outline: as §1

soybean = test: Test B pre/postemergence soybean; format: in vivo, Glycine max
Outline: as §1

[1] = Preemergence, Rate 62 g/ha, scale of 0 to 10 where 0 is no effect and 10 is complete control
[2] = Preemergence, Rate 250 g/ha, scale of 0 to 10 where 0 is no effect and 10 is complete control
[3] = Preemergence, Rate 500 g/ha, scale of 0 to 10 where 0 is no effect and 10 is complete control
[4] = Rate 62 g/ha, Postemergence, scale of 0 to 10 where 0 is no effect and 10 is complete control
[5] = Rate 125 g/ha, Postemergence, scale 0 to 10
[6] = Rate 500 g/ha, Postemergence, scale 0 to 10
[7] = Rate 62 g/ha, headed Pre-emergence (flood test species), scale 0 to 10 (0 no effect, 10 complete control)
[8] = Rate 125 g/ha, Pre-emergence, flood test species, scale 0 to 10 where 0 is no effect and 10 is complete control
[9] = Rate 250 g/ha, Pre-emergence, flood-test species, scale 0 to 10, 0 is no effect, 10 is complete control
[10] = Rate 500 g/ha, Pre-emergence, flood test species, scale 0 to 10 (0 no effect, 10 complete control)
[11] = Rate 125 g/ha, Preemergence, scale of 0 to 10 where 0 is no effect and 10 is complete control

CCOC(=O)C=CCn1c(=O)on(C(=O)N(c2ccc(F)cc2)C(C)C)c1=O [Compound 214]
Blackgrass plant response rating (blackgrass; [1]): 0 | Blackgrass plant response rating (blackgrass; [2]): 3 | Plant response rating, Blackgrass (blackgrass; [3]): 3 | Blackgrass plant response rating (blackgrass; [4]): 1 | Blackgrass plant response rating (blackgrass; [5]): 4 | Plant response rating (0 to 10; 0 is no effect, 10 is complete control), Blackgrass (blackgrass; Rate 250 g/ha, Postemergence): 4 | Blackgrass plant response rating (blackgrass; [6]): 5 | Barnyardgrass plant response rating (bamyardgrass; [7]): 0 | Barnyardgrass plant response rating (bamyardgrass; [8]): 0 | Barnyardgrass plant response rating (bamyardgrass; [9]): 0 | Barnyardgrass plant response rating (bamyardgrass; [10]): 0 | Wild oats plant response rating (wild oat; [1]): 0 | Wild oats plant response rating (wild oat; [2]): 0 | Plant response rating, Wild oats (wild oat; [3]): 0 | Wild oats plant response rating (wild oat; [4]): 0 | Wild oats plant response rating (wild oat; [5]): 0 | Wild oats plant response rating (wild oat; [11]): 0 | Plant response rating (0 to 10; 0 is no effect, 10 is complete control), Wild oats (wild oat; Rate 250 g/ha, Postemergence): 0 | Bedstraw plant response rating (bedstraw; [1]): 0 | Bedstraw plant response rating (bedstraw; [2]): 0 | Plant response rating, Bedstraw (bedstraw; [3]): 0 | Bedstraw plant response rating (bedstraw; [4]): 0 | Bedstraw plant response rating (bedstraw; [5]): 0 | Bedstraw plant response rating (bedstraw; [11]): 0 | Plant response rating (0 to 10; 0 is no effect, 10 is complete control), Bedstraw (bedstraw; Rate 250 g/ha, Postemergence): 2 | Bedstraw plant response rating (bedstraw; [6]): 8 | Ducksalad plant response rating (duck salad; [7]): 0 | Ducksalad plant response rating (duck salad; [8]): 0 | Ducksalad plant response rating (duck salad; [9]): 0 | Ducksalad plant response rating (duck salad; [10]): 0 | Nutsedge plant response rating (purple nutsedge; [1]): 0 | Nutsedge plant response rating (purple nutsedge; [4]): 0 | Nutsedge plant response rating (purple nutsedge; [5]): 0 | Plant response rating (0 to 10; 0 is no effect, 10 is complete control), Nutsedge (purple nutsedge; Rate 250 g/ha, Postemergence): 0 | Nutsedge plant response rating (purple nutsedge; [6]): 0 | Wheat plant response rating (wheat; [1]): 0 | Wheat plant response rating (wheat; [2]): 0 | Plant response rating, Wheat (wheat; [3]): 0 | Wheat plant response rating (wheat; [4]): 0 | Wheat plant response rating (wheat; [5]): 0 | Wheat plant response rating (wheat; [11]): 0 | Plant response rating (0 to 10; 0 is no effect, 10 is complete control), Wheat (wheat; Rate 250 g/ha, Postemergence): 3 | Sugarbeets plant response rating (sugar beet; [1]): 0 | Sugarbeets plant response rating (sugar beet; [2]): 0 | Plant response rating, Sugarbeets (sugar beet; [3]): 0 | Sugarbeets plant response rating (sugar beet; [4]): 0 | Sugarbeets plant response rating (sugar beet; [5]): 0 | Sugarbeets plant response rating (sugar beet; [11]): 0 | Plant response rating (0 to 10; 0 is no effect, 10 is complete control), Sugarbeets (sugar beet; Rate 250 g/ha, Postemergence): 0 | Sugarbeets plant response rating (sugar beet; [6]): 0 | Rice plant response rating (rice; [7]): 0 | Rice plant response rating (rice; [8]): 0 | Rice plant response rating (rice; [9]): 0 | Rice plant response rating (rice; [10]): 0 | Morningglory plant response rating (morningglory; [1]): 0 | Morningglory plant response rating (morningglory; [2]): 0 | Plant response rating, Morningglory (morningglory; [3]): 0 | Morningglory plant response rating (morningglory; [4]): 2 | Morningglory plant response rating (morningglory; [5]): 3 | Morningglory plant response rating (morningglory; [11]): 0 | Plant response rating (0 to 10; 0 is no effect, 10 is complete control), Morningglory (morningglory; Rate 250 g/ha, Postemergence): 6 | Morningglory plant response rating (morningglory; [6]): 7 | Rape plant response rating (rape; [1]): 0 | Rape plant response rating (rape; [2]): 0 | Plant response rating, Rape (rape; [3]): 0 | Rape plant response rating (rape; [4]): 0 | Rape plant response rating (rape; [5]): 0 | Rape plant response rating (rape; [11]): 0 | Plant response rating (0 to 10; 0 is no effect, 10 is complete control), Rape (rape; Rate 250 g/ha, Postemergence): 3 | Rape plant response rating (rape; [6]): 3 | Redroot pigweed plant response rating (pigweed; [1]): 0 | Redroot pigweed plant response rating (pigweed; [2]): 6 | Plant response rating, Redroot pigweed (pigweed; [3]): 9 | Redroot pigweed plant response rating (pigweed; [4]): 0 | Redroot pigweed plant response rating (pigweed; [5]): 0 | Redroot pigweed plant response rating (pigweed; [11]): 0 | Plant response rating (0 to 10; 0 is no effect, 10 is complete control), Redroot pigweed (pigweed; Rate 250 g/ha, Postemergence): 1 | Redroot pigweed plant response rating (pigweed; [6]): 3 | Giant foxtail plant response rating (giant foxtail; [1]): 2 | Giant foxtail plant response rating (giant foxtail; [2]): 6 | Plant response rating, Giant foxtail (giant foxtail; [3]): 6 | Giant foxtail plant response rating (giant foxtail; [4]): 0 | Giant foxtail plant response rating (giant foxtail; [5]): 0 | Giant foxtail plant response rating (giant foxtail; [11]): 3 | Plant response rating (0 to 10; 0 is no effect, 10 is complete control), Giant foxtail (giant foxtail; Rate 250 g/ha, Postemergence): 0 | Giant foxtail plant response rating (giant foxtail; [6]): 4 | S. Flatsedge plant response rating (smallflower flatsedge; [7]): 0 | S. Flatsedge plant response rating (smallflower flatsedge; [8]): 0 | S. Flatsedge plant response rating (smallflower flatsedge; [9]): 0 | S. Flatsedge plant response rating (smallflower flatsedge; [10]): 0 | Velvetleaf plant response rating (velvetleaf; [1]): 0 | Velvetleaf plant response rating (velvetleaf; [2]): 0 | Plant response rating, Velvetleaf (velvetleaf; [3]): 0 | Velvetleaf plant response rating (velvetleaf; [4]): 0 | Velvetleaf plant response rating (velvetleaf; [5]): 0 | Velvetleaf plant response rating (velvetleaf; [11]): 0 | Plant response rating (0 to 10; 0 is no effect, 10 is complete control), Velvetleaf (velvetleaf; Rate 250 g/ha, Postemergence): 0 | Soybean plant response rating (soybean; [1]): 0 | Soybean plant response rating (soybean; [2]): 0 | Plant response rating, Soybean (soybean; [3]): 4 | Soybean plant response rating (soybean; [4]): 0 | Soybean plant response rating (soybean; [5]): 1 | Soybean plant response rating (soybean; [11]): 0 | Plant response rating (0 to 10; 0 is no effect, 10 is complete control), Soybean (soybean; Rate 250 g/ha, Postemergence): 3 | Soybean plant response rating (soybean; [6]): 3
